Holding throughout (experiment): Kinase panel (Cerep)
What all share (type): biochemical

The target of one experiment is T1, MARK1 (h) (Homo sapiens, UniProt Q9P0L2).
T1 construct: purchased Eurofins Cerep
As to conditions: read-out: % inhibition at 10 µM by MC3353, MARK1 (h), ATP 1 μM. As for the experimental part: (§1) The test compound, reference compound or water (control) were mixed with the enzyme (for the exact amount see table below) in the appropriate buffer. Thereafter, the reaction was initiated by adding the required amount of the appropriate substrate and of ATP, and the mixture is incubated at room temperature (variable reaction time, see table below). For control basal measurements, the enzyme was omitted from the reaction mixture. Following incubation, the reaction was stopped by adding 13 mM EDTA. After 5 min, the proper antibody labelled with europium chelate was added. After 60 more min, the fluorescence transfer was measured at λex=337 nm, λem=620 nm and λem=665 nm using a microplate reader (Envision, Perkin Elmer). The enzyme activity was determined by dividing the signal measured at 665 nm by that measured at 620 nm (ratio). The results are expressed as a percent inhibition of the control enzyme activity.

The target of the next experiment is T2, PDK1 (h) (Homo sapiens, UniProt O15530).
T2 construct: purchased Eurofins Cerep
The settings on record: read-out: % inhibition at 10 µM by MC3353, PDK1 (h), ATP 10 μM. The procedure:
as §1

The target in the next experiment is T3, EGFR kinase (h) (Homo sapiens, UniProt P00533).
T3 construct: purchased Eurofins Cerep
As to conditions: read-out: % inhibition at 10 µM by MC3353, EGFR kinase (h), ATP 10 μM. The procedure:
as §1

A further experiment addresses T4, Src kinase (h) (Homo sapiens, UniProt P12931).
T4 construct: purchased Eurofins Cerep
As to conditions: read-out: % inhibition at 10 µM by MC3353, Src kinase (h), ATP 5 μM. As for the experimental part:
as §1

The target in the next experiment is T5, CHK1 (h) (Homo sapiens, UniProt O14757).
T5 construct: purchased Eurofins Cerep
The settings on record: read-out: % inhibition at 10 µM by MC3353, CHK1 (h), ATP 30 μM. As for the experimental part:
as §1

For another experiment, the target named is T6, GSK3beta (h) (Homo sapiens, UniProt P49841).
T6 construct: purchased Eurofins Cerep
The settings on record: read-out: % inhibition at 10 µM by MC3353, GSK3beta (h), ATP 10 μM. As for the experimental part:
as §1

The target of another experiment is T7, FGFR3 kinase (h) (Homo sapiens, UniProt P22607).
T7 construct: purchased Eurofins Cerep
The settings on record: read-out: % inhibition at 10 µM by MC3353, FGFR3 kinase (h), ATP 10 μM. As for the experimental part:
as §1

The target of another experiment is T8, SGK1 (h) (Homo sapiens, UniProt O00141).
T8 construct: purchased Eurofins Cerep
The settings on record: read-out: % inhibition at 10 µM by MC3353, SGK1 (h), ATP 10 μM. As for the experimental part:
as §1

A further experiment has as its target T9, TRKA (h) (Homo sapiens, UniProt P04629).
T9 construct: purchased Eurofins Cerep
The settings on record: read-out: % inhibition at 10 µM by MC3353, TRKA (h), ATP 100 μM. The procedure: as §1

In another experiment the target is T10, NEK2 (h) (Homo sapiens, UniProt P51955).
T10 construct: purchased Eurofins Cerep
As to conditions: read-out: % inhibition at 10 µM by MC3353, NEK2 (h), ATP 10 μM. As for the experimental part:
as §1

Another experiment concerns the target T11, Lck kinase (h) (Homo sapiens, UniProt P06239).
T11 construct: purchased Eurofins Cerep
The settings on record: read-out: % inhibition at 10 µM by MC3353, Lck kinase (h), ATP 10 μM. The procedure: as §1

The target in another experiment is T12, p38alpha kinase (h) (Homo sapiens, UniProt Q16539).
T12 construct: purchased Eurofins Cerep
The settings on record: read-out: % inhibition at 10 µM by MC3353, p38alpha kinase (h), ATP 100 μM. As for the experimental part: as §1

The target of another experiment is T13, FGFR1 kinase (h) (Homo sapiens, UniProt P11362).
T13 construct: purchased Eurofins Cerep
The settings on record: read-out: % inhibition at 10 µM by MC3353, FGFR1 kinase (h), ATP 100 μM. As for the experimental part: as §1

The next experiment addresses T14, KDR kinase (h) (VEGFR2) (Homo sapiens, UniProt P35968).
T14 construct: purchased Eurofins Cerep
The settings on record: read-out: % inhibition at 10 µM by MC3353, KDR kinase (h) (VEGFR2), ATP 25 μM. The procedure: as §1

The target of another experiment is T15, ERK2 (h) (P42mapk) (Homo sapiens, UniProt P28482).
T15 construct: purchased Eurofins Cerep
The settings on record: read-out: % inhibition at 10 µM by MC3353, ERK2 (h) (P42mapk), ATP 10 μM. As for the experimental part:
as §1

The next experiment concerns the target T16, ROCK1 (h) (Homo sapiens, UniProt Q13464).
T16 construct: purchased Eurofins Cerep
As to conditions: read-out: % inhibition at 10 µM by MC3353, ROCK1 (h), ATP 1 μM. The procedure: as §1

The next experiment addresses T17, PAK2 (h) (Homo sapiens, UniProt Q13177).
T17 construct: purchased Eurofins Cerep
The settings on record: read-out: % inhibition at 10 µM by MC3353, PAK2 (h), ATP 50 μM. The procedure: as §1

A further experiment concerns the target T18, JNK1 (h) (Homo sapiens, UniProt P45983).
T18 construct: purchased Eurofins Cerep
The settings on record: read-out: % inhibition at 10 µM by MC3353, JNK1 (h), ATP 10 μM. As for the experimental part: as §1

The target in the next experiment is T19, CHK2 (h) (Homo sapiens, UniProt O96017).
T19 construct: purchased Eurofins Cerep
As to conditions: read-out: % inhibition at 10 µM by MC3353, CHK2 (h), ATP 30 μM. The procedure:
as §1

Another experiment addresses T20, RAF-1 kinase (h) (Homo sapiens, UniProt P04049).
T20 construct: purchased Eurofins Cerep
The settings on record: read-out: % inhibition at 10 µM by MC3353, RAF-1 kinase (h), ATP 10 μM. As for the experimental part: as §1

The next experiment addresses T21, CaMK2alpha (h) (Homo sapiens, UniProt Q9UQM7).
T21 construct: purchased Eurofins Cerep
The settings on record: read-out: % inhibition at 10 µM by MC3353, CaMK2alpha (h), ATP 10 μM. The procedure:
as §1

The target of another experiment is T22, CDC2/CDK1 (h) (cycB) (Homo sapiens, UniProt P06493).
T22 construct: purchased Eurofins Cerep
As to conditions: read-out: % inhibition at 10 µM by MC3353, CDC2/CDK1 (h) (cycB), ATP 10 μM. As for the experimental part: as §1

The next experiment has as its target T23, IKKalpha (h) (Homo sapiens, UniProt O15111).
T23 construct: purchased Eurofins Cerep
As to conditions: read-out: % inhibition at 10 µM by MC3353, IKKalpha (h), ATP 5 μM. The procedure:
as §1

T22 sequence (P06493 whole entry): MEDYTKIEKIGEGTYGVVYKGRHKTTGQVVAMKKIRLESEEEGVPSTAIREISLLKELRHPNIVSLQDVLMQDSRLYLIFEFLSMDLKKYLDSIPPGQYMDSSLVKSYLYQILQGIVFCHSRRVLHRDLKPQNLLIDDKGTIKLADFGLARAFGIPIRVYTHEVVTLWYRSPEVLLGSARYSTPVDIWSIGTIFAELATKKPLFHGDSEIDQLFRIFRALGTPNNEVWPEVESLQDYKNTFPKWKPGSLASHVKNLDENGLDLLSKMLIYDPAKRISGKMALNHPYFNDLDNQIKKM
T22 sequence (P14635 whole entry partner): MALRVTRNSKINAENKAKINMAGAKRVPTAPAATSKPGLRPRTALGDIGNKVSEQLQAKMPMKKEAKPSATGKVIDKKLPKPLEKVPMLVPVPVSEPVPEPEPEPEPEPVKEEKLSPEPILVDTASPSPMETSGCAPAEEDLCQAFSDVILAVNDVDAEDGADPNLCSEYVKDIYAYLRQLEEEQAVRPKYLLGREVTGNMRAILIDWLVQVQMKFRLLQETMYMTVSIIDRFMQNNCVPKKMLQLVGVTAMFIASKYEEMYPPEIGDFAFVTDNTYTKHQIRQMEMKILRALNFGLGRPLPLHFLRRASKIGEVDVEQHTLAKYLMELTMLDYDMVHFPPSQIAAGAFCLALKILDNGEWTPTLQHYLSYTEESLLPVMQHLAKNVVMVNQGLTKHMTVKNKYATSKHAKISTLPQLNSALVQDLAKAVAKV
T17 sequence (Q13177 whole entry): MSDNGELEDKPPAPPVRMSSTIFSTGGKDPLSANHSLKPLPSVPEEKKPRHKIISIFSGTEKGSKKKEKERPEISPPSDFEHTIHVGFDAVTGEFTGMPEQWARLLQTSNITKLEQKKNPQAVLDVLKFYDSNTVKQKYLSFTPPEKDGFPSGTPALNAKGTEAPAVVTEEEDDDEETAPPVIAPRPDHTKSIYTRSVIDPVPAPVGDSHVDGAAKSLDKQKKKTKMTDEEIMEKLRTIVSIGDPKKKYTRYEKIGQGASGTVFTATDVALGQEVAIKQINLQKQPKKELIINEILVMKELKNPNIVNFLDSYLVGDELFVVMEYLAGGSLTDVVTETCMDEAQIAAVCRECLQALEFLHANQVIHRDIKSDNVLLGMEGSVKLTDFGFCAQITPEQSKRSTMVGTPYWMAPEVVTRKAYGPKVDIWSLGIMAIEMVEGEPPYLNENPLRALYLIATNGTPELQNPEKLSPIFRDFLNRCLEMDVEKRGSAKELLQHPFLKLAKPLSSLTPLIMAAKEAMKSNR
T20 sequence (P04049 whole entry): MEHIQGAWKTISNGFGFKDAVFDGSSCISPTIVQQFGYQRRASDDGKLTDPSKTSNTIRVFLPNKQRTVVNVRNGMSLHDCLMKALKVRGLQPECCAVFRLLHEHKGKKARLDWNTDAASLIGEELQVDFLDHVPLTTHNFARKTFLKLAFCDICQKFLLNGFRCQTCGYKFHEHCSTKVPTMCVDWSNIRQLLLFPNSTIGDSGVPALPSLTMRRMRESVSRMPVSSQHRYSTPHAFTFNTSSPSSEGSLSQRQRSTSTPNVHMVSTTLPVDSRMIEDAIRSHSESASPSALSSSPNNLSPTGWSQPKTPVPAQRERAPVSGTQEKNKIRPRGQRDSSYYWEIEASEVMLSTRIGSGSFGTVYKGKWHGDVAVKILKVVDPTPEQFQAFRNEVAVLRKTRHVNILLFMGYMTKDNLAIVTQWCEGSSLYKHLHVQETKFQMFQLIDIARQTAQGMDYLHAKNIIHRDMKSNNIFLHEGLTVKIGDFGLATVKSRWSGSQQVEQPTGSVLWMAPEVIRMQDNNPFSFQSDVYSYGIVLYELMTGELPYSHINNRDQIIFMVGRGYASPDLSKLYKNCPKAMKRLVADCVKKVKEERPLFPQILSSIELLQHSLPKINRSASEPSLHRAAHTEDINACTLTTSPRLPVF
T1 sequence (Q9P0L2 whole entry): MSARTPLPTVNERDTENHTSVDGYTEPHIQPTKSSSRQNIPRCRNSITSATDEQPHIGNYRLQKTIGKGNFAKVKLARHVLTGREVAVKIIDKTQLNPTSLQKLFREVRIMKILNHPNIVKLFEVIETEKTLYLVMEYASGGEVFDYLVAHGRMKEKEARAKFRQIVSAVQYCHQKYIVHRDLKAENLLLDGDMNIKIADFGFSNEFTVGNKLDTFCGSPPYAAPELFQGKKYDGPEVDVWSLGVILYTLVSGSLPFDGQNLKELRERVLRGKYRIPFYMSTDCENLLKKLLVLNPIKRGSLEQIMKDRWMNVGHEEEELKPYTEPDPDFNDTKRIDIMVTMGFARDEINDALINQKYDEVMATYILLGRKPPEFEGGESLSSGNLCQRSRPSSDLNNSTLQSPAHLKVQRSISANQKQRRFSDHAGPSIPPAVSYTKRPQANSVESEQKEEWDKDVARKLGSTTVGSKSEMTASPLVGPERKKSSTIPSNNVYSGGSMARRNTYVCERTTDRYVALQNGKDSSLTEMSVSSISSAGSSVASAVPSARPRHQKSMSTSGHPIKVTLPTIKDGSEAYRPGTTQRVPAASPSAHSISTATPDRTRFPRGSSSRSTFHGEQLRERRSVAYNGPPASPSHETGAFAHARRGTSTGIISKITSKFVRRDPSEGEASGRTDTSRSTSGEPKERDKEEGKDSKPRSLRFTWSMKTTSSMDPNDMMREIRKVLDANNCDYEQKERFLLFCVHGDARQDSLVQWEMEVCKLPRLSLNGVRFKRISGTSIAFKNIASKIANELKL
T19 sequence (O96017 whole entry): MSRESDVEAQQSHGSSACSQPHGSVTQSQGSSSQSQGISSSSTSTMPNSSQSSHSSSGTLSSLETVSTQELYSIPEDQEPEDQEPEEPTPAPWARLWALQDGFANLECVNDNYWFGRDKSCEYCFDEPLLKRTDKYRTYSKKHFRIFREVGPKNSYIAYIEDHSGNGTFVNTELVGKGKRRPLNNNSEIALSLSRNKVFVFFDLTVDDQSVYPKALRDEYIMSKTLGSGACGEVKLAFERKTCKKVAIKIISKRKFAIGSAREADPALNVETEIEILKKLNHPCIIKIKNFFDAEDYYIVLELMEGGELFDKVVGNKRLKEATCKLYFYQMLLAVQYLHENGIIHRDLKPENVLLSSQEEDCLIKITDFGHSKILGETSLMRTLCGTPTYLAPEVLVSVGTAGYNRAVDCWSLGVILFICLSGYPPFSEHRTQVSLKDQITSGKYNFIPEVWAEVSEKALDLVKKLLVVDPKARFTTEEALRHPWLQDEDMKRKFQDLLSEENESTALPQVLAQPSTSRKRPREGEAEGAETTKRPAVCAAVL
T6 sequence (P49841 whole entry): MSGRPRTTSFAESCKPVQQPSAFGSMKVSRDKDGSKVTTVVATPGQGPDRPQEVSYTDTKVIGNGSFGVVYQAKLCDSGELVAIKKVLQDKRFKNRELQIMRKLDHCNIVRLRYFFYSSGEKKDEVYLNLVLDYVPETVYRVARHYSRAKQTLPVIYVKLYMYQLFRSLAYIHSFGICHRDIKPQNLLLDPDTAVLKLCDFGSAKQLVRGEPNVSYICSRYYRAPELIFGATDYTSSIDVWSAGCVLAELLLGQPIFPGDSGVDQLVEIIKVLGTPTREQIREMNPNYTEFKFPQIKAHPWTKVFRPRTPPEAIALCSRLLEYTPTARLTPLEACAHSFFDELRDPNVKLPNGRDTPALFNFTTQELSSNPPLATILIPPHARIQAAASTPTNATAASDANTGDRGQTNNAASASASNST
T11 sequence (P06239 whole entry): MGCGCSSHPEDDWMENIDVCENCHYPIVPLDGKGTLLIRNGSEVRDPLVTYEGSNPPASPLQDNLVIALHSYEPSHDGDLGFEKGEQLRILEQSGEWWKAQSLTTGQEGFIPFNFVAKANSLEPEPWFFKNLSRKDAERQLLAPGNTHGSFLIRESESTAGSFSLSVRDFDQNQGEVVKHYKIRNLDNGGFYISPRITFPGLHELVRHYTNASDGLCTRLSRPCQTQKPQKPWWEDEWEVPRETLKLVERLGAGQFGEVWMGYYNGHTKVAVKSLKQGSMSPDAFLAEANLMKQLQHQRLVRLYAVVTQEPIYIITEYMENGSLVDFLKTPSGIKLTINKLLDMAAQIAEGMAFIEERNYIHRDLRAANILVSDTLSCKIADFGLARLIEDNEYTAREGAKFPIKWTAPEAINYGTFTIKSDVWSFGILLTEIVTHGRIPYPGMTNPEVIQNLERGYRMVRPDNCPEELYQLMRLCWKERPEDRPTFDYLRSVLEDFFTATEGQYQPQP
T13 sequence (P11362 22-822): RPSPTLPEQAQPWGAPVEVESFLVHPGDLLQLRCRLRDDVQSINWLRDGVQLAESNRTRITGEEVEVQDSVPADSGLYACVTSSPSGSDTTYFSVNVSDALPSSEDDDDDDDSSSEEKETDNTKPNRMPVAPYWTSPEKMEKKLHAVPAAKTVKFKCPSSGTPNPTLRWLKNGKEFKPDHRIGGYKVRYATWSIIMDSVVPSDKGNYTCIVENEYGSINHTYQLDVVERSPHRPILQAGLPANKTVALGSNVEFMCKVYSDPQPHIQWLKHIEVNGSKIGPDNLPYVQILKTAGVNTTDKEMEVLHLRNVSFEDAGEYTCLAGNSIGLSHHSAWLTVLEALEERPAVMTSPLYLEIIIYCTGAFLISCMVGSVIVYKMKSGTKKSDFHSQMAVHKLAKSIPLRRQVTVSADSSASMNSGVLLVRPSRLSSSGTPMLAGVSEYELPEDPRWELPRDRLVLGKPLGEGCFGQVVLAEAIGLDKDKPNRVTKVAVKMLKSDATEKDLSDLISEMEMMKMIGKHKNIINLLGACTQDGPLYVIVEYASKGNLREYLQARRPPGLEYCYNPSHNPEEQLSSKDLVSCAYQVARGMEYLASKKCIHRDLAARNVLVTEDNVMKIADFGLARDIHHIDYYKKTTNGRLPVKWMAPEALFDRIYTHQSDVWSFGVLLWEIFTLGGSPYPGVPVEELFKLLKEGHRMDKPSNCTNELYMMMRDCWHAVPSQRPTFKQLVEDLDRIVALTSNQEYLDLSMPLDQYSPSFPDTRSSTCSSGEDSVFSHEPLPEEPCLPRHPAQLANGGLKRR

Consider `O=C(Nc1ccc(NC(=O)c2ccc(Nc3ccnc4ccccc34)cc2)cc1)OCc1ccccc1` [MC3353, Benzyl (4-(4-(quinolin-4-ylamino)benzamido)phenyl)carbamate], for which the inhibition at 10 µM on MARK1 (h) was -116%; on PDK1 (h) it was -149%; at EGFR kinase (h) it was 5%; at Src kinase (h), 57%; on CHK1 (h), 7%; at GSK3beta (h), -29%. Also, the inhibition at 10 µM is -169% on FGFR3 kinase (h); 29% at SGK1 (h); 67% at TRKA (h); -9% at NEK2 (h); 4% at Lck kinase (h); -58% on p38alpha kinase (h). Also, the inhibition at 10 µM on FGFR1 kinase (h) is -200%; on KDR kinase (h) (VEGFR2), -111%; on ERK2 (h) (P42mapk) it was -21%; at ROCK1 (h), -51%; on PAK2 (h), -135%; on JNK1 (h) it was -32%. Further, the inhibition at 10 µM at CHK2 (h) was -30%; at RAF-1 kinase (h), 60%; at CaMK2alpha (h) it was -22%; at CDC2/CDK1 (h) (cycB), -25%; at IKKalpha (h), 18%.

(Values after PMC6501426 (Clinical Epigenetics, 2019).)
